Laboratory results as given in US20240277670A1, “SAFE USE OF MMP-12 INHIBITOR” (Foresee Pharmaceuticals Co., Ltd., priority 2021, published 2024).
Where two headings read alike, the source gives them in different places.

Experiment: Multiple ascending dose (MAD) part, plasma pharmacokinetics
Type: in vivo, human
Details: for CL/F / Kel / AI / CLss/F / Cavg / Cmin / Fl / RAUC2: AUC0-12 (Day 8)/AUC0-inf (Day 1) / AUC(0-t) / AUC(0-inf) / Cmax / half-life / Vd/F: mean; for AUC(0-t) / AUC(0-inf) / Cmax / half-life / Vd/F / Tmax: human, plasma; for Vd/F: read-out: Vz/F; for Tmax: median
Method: Three cohorts of eight subjects each (six on active and two on placebo) were enrolled and received the following treatments orally: 100 mg, 200 mg, and 400 mg ASD-in-Capsule b.i.d. (one dose on Days 1 and 8, twice-daily doses from Days 2 to 7) (FIG. 4).
Blood samples were collected post-dosing on Day 1 (at 0.5, 1, 2, 3, 4, 6, 8, 12, and 16 hours) and Day 8 (at 0.5, 1, 2, 3, 4, 6, 8, 10, 12, 16, 20, 24, 30, 36, and 48 hours) as well as immediately pre-morning dose on Days 2-7 and 2 hours post-morning dose on Days 4 and 6. Within 15 minutes of collection, blood samples were centrifuged at 2000 rpm for 10 minutes at 4° C., and, subsequently, the plasma was aliquoted, frozen, and stored at −70° C. pending PK analyses.
The samples were subjected to liquid chromatography followed by analyses by tandem mass spectrometry. The lower limit of quantification for the compound of formula (I) was 5 ng/mL.
The plasma PK parameters were derived by non-compartmental analyses using Phoenix® WinNonlin® version 6.3 or higher (Pharsight Corporation Inc., Mountain View, CA, USA). PK variables were summarized using arithmetic mean, standard deviation, median, minimum, maximum, the percent coefficient of variation, geometric mean, and a two-sided 95% confidence limit of the arithmetic mean and the geometric mean.

[1] = Treatment A (100 mg ASD-in-Capsule oral), Day 1
[2] = Treatment A (100 mg, b.i.d. Days 2-7), Day 8
[3] = Treatment B (200 mg ASD-in-Capsule oral), Day 1
[4] = Treatment B (200 mg, b.i.d. Days 2-7), Day 8
[5] = Treatment C (400 mg ASD-in-Capsule oral), Day 1
[6] = Treatment C (400 mg, b.i.d. Days 2-7), Day 8
[7] = oral, Treatment A (100 mg, b.i.d. Days 2-7), Day 8
[8] = oral, Treatment B (200 mg, b.i.d. Days 2-7), Day 8
[9] = oral, Treatment C (400 mg, b.i.d. Days 2-7), Day 8

CL/F [1]: 28.7 L/h
Kel [1]: 0.106 h⁻¹
AI [2]: 1.59
CLss/F [2]: 23.1 L/h
Cavg [2]: 365 ng/mL
Cmin [2]: 156 ng/mL
Fl [2]: 127%
Kel [2]: 0.0897 h⁻¹
RAUC2: AUC0-12 (Day 8)/AUC0-inf (Day 1) (Treatment A (100 mg, b.i.d. Days 2-7)): 1.25
CL/F [3]: 20.3 L/h
Kel [3]: 0.119 h⁻¹
AI [4]: 1.57
CLss/F [4]: 16.2 L/h
Cavg [4]: 1090 ng/mL
Cmin [4]: 524 ng/mL
Fl [4]: 132%
Kel [4]: 0.0895 h⁻¹
RAUC2: AUC0-12 (Day 8)/AUC0-inf (Day 1) (Treatment B (200 mg, b.i.d. Days 2-7)): 1.26
CL/F [5]: 24.0 L/h
Kel [5]: 0.113 h⁻¹
AI [6]: 1.40
CLss/F [6]: 18.2 L/h
Cavg [6]: 2060 ng/mL
Cmin [6]: 1010 ng/mL
Fl [6]: 142%
Kel [6]: 0.115 h⁻¹
RAUC2: AUC0-12 (Day 8)/AUC0-inf (Day 1) (Treatment C (400 mg, b.i.d. Days 2-7)): 1.28
Steady state achieved (all three dose levels (100, 200, 400 mg b.i.d.)): ≤ 6 days
AUC(0-t) (oral, 100 mg, Treatment A (100 mg, b.i.d. Days 2-7), Day 8, read-out: AUC0-12): 4380 ng·h/mL
AUC(0-t) (oral, 200 mg, Treatment B (200 mg, b.i.d. Days 2-7), Day 8, read-out: AUC0-12): 13100 ng·h/mL
AUC(0-t) (oral, 400 mg, Treatment C (400 mg, b.i.d. Days 2-7), Day 8, read-out: AUC0-12): 24700 ng·h/mL
AUC(0-inf) [7]: 6180 ng·h/mL
Cmax [7]: 624 ng/mL
half-life [7]: 8.37 h
Vd/F [7]: 277 L
Tmax [7]: 2 h
AUC(0-inf) [8]: 19200 ng·h/mL
Cmax [8]: 1920 ng/mL
half-life [8]: 8.14 h
Vd/F [8]: 189 L
Tmax [8]: 1.5 h
AUC(0-inf) [9]: 36300 ng·h/mL
Cmax [9]: 3710 ng/mL
half-life [9]: 6.57 h
Vd/F [9]: 158 L
Tmax [9]: 1.5 h
AUC(0-t) (po, 100 mg, Treatment A (100 mg ASD-in-Capsule oral), Day 1, read-out: AUC0-12): 2670 ng·h/mL
AUC(0-t) (po, 100 mg, Treatment A (100 mg ASD-in-Capsule oral), Day 1, read-out: AUC0-24): 3290 ng·h/mL
AUC(0-t) (po, 100 mg, Treatment A (100 mg ASD-in-Capsule oral), Day 1, read-out: AUC0-t): 3290 ng·h/mL
AUC(0-t) (po, 200 mg, Treatment B (200 mg ASD-in-Capsule oral), Day 1, read-out: AUC0-12): 7810 ng·h/mL
AUC(0-t) (po, 200 mg, Treatment B (200 mg ASD-in-Capsule oral), Day 1, read-out: AUC0-24): 9720 ng·h/mL
AUC(0-t) (po, 200 mg, Treatment B (200 mg ASD-in-Capsule oral), Day 1, read-out: AUC0-t): 9710 ng·h/mL
AUC(0-t) (po, 400 mg, Treatment C (400 mg ASD-in-Capsule oral), Day 1, read-out: AUC0-12): 14600 ng·h/mL
AUC(0-t) (po, 400 mg, Treatment C (400 mg ASD-in-Capsule oral), Day 1, read-out: AUC0-24): 18200 ng·h/mL
AUC(0-t) (po, 400 mg, Treatment C (400 mg ASD-in-Capsule oral), Day 1, read-out: AUC0-t): 18200 ng·h/mL
AUC(0-inf) [1]: 3550 ng·h/mL
Cmax [1]: 448 ng/mL
half-life [1]: 6.9 h
Vd/F [1]: 291 L
Tmax [1]: 1 h
AUC(0-inf) [3]: 10400 ng·h/mL
Cmax [3]: 1200 ng/mL
half-life [3]: 6.02 h
Vd/F [3]: 176 L
Tmax [3]: 1.02 h
AUC(0-inf) [5]: 19900 ng·h/mL
Cmax [5]: 2730 ng/mL
half-life [5]: 6.48 h
Vd/F [5]: 212 L
Tmax [5]: 1 h
AUC ratio (Day 8/Day 1) (twice-daily administration, all three dose levels): approximately 1.7 fold
SMILES: Cc1cccc(COc2ccc(Sc3ccoc3C3NC(=O)NC3=O)cc2)c1 (stereo not drawn) [compound of formula (I)]
Increase of Cmax and AUC with dose (from 200 to 400 mg after multiple doses for a week): approximately in a dose-proportional manner
